From patent US11981658B2, “Substituted aminopyridine compounds as EGFR inhibitors” (YUHAN CORPORATION, priority 2021, dated 2024)
Like-named read-outs stand apart in the source and are kept apart here.

Tests used:
[1] = target: EGFR L858R/C797S (Homo sapiens, UniProt P00533, C797S/L858R); assay: Biochemical EGFR kinase inhibition assay (Lance Ultra TR-FRET), double mutant L858R/C797S
Procedure, shortened: (§1)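 Enzyme reactions lasted 1 hour at room temperature with test compounds between 0.003 and 10 μM, followed by 10 mM EDTA quench.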

[2] = target: EGFR Del19/C797S (Homo sapiens, UniProt P00533, C797S/DEL746-750); assay: Biochemical EGFR kinase inhibition assay (Lance Ultra TR-FRET), double mutant del19/C797S
Procedure, shortened: as §1

[3] = target: EGFR wildtype (WT) (Homo sapiens, UniProt P00533); assay: Biochemical EGFR kinase inhibition assay (Lance Ultra TR-FRET), wildtype
EGFR wildtype (WT), sequence (P00533 25-1210): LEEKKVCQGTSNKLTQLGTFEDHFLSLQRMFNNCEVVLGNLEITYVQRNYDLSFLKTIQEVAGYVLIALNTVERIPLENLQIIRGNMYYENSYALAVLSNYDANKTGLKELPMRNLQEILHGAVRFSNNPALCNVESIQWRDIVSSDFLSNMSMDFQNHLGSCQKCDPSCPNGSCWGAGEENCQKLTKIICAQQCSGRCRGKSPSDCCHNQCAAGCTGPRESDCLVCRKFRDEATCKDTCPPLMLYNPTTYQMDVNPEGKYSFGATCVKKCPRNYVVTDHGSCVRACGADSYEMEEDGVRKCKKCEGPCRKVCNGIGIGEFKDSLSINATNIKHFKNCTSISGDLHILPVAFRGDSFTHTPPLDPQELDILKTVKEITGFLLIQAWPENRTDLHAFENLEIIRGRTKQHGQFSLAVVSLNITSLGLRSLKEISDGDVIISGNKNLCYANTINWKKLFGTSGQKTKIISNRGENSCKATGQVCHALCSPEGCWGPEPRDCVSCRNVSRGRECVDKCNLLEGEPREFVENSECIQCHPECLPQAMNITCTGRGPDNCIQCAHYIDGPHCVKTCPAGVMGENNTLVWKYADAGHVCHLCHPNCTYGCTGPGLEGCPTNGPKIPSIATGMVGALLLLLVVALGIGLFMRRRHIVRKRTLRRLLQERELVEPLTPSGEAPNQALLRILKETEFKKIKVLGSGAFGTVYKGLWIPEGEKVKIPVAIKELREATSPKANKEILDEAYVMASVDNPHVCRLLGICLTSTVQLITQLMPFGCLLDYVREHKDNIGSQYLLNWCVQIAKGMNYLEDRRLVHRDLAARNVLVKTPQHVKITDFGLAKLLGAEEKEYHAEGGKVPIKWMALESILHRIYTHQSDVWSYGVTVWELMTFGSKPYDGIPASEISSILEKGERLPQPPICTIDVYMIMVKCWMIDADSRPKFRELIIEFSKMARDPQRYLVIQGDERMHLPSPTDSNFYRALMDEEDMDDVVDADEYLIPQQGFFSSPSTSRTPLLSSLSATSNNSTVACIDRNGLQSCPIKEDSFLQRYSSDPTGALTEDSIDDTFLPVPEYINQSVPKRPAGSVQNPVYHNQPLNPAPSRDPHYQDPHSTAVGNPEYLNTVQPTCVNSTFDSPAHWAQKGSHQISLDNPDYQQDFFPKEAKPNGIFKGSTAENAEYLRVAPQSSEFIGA
Procedure, shortened: as §1

[4] = target: EGFR Del19/T790M/C797S (Homo sapiens, UniProt P00533, C797S/DEL746-750/T790M); assay: Biochemical EGFR kinase inhibition assay (Lance Ultra TR-FRET), triple mutant del19/T790M/C797S
EGFR Del19/T790M/C797S, sequence (P00533 with tags, fused parts or gaps DEL746-750/T790M/C797S): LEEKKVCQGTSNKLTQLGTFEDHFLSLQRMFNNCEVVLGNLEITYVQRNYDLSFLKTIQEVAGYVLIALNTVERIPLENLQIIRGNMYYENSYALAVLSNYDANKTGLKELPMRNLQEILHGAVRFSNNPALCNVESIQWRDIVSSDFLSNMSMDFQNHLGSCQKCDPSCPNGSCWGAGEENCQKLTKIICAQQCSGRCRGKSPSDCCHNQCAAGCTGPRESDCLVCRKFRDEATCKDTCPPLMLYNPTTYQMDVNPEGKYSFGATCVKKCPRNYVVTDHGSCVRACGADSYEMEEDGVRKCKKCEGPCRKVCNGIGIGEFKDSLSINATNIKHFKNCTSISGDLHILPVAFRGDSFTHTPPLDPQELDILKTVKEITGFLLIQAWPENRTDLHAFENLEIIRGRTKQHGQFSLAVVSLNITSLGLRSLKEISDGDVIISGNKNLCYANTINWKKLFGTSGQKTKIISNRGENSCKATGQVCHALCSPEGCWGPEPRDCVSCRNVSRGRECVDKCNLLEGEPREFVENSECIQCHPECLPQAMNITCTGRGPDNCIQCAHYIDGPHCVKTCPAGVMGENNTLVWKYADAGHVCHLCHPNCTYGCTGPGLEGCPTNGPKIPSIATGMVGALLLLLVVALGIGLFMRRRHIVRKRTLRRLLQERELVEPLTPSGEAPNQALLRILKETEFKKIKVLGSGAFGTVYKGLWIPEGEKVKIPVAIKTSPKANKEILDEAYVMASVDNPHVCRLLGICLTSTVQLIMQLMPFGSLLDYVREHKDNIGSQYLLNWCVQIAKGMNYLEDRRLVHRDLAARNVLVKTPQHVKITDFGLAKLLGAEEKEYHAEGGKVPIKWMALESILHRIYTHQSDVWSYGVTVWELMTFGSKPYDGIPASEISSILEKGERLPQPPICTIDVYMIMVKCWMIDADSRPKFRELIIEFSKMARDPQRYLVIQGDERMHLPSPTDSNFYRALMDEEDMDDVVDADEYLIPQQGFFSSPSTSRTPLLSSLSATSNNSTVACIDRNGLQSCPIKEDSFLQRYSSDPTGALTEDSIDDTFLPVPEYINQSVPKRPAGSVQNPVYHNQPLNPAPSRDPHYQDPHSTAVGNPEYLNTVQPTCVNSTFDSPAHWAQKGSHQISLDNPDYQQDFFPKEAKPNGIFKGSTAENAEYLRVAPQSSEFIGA
Procedure, shortened: as §1

[5] = target: EGFR L858R/T790M/C797S (Homo sapiens, UniProt P00533, C797S/L858R/T790M); assay: Biochemical EGFR kinase inhibition assay (Lance Ultra TR-FRET), triple mutant L858R/T790M/C797S
EGFR L858R/T790M/C797S, sequence (P00533 25-1210 T790M/C797S/L858R): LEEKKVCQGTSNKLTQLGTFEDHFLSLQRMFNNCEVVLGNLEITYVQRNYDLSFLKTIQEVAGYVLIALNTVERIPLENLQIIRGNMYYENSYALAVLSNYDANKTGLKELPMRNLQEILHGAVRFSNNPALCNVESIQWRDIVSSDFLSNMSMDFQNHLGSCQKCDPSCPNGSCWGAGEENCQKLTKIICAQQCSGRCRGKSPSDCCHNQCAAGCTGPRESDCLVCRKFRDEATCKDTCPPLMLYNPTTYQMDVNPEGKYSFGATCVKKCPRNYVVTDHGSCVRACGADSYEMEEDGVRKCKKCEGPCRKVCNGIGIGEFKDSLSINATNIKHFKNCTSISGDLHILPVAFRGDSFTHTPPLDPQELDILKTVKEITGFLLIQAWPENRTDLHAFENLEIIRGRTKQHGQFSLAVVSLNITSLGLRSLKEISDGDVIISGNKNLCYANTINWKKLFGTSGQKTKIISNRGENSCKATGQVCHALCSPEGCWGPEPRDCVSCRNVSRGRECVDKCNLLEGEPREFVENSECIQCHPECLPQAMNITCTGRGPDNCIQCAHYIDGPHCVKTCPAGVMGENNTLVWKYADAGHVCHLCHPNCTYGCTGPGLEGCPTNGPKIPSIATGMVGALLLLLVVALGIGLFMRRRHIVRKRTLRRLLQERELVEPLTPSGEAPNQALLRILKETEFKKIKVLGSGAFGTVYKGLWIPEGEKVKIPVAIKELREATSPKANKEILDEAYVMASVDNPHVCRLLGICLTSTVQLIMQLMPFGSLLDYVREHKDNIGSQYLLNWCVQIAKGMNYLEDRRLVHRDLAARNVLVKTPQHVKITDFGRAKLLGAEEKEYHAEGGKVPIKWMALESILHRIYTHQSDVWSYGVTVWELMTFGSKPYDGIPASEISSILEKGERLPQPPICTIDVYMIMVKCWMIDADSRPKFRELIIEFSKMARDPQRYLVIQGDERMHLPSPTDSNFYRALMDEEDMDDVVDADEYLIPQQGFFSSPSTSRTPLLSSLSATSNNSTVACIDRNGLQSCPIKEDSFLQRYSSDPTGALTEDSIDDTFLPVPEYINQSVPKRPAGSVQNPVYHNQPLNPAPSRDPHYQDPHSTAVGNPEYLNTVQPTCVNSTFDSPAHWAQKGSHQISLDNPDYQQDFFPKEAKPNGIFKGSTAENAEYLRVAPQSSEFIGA
Procedure, shortened: as §1

[6] = IC50 L858R/C797S (nM), 100 μM ATP
[7] = IC50 Del19/C797S (nM), 100 μM ATP
[8] = IC50 Del19/T790M/C797S (nM), 100 μM ATP
[9] = IC50 L858R/T790M/C797S (nM), 100 μM ATP
[10] = Km ATP, read-out: IC50 L858R/C797S (nM), Km ATP
[11] = Km ATP, read-out: IC50 Del19/C797S (nM), Km ATP
[12] = Km ATP, read-out: IC50 WT (nM), Km ATP
[13] = Km ATP, read-out: IC50 Del19/T790M/C797S (nM), Km ATP
[14] = Km ATP, read-out: IC50 L858R/T790M/C797S (nM), Km ATP

EGFR L858R/C797S, sequence (P00533 25-1210 C797S/L858R): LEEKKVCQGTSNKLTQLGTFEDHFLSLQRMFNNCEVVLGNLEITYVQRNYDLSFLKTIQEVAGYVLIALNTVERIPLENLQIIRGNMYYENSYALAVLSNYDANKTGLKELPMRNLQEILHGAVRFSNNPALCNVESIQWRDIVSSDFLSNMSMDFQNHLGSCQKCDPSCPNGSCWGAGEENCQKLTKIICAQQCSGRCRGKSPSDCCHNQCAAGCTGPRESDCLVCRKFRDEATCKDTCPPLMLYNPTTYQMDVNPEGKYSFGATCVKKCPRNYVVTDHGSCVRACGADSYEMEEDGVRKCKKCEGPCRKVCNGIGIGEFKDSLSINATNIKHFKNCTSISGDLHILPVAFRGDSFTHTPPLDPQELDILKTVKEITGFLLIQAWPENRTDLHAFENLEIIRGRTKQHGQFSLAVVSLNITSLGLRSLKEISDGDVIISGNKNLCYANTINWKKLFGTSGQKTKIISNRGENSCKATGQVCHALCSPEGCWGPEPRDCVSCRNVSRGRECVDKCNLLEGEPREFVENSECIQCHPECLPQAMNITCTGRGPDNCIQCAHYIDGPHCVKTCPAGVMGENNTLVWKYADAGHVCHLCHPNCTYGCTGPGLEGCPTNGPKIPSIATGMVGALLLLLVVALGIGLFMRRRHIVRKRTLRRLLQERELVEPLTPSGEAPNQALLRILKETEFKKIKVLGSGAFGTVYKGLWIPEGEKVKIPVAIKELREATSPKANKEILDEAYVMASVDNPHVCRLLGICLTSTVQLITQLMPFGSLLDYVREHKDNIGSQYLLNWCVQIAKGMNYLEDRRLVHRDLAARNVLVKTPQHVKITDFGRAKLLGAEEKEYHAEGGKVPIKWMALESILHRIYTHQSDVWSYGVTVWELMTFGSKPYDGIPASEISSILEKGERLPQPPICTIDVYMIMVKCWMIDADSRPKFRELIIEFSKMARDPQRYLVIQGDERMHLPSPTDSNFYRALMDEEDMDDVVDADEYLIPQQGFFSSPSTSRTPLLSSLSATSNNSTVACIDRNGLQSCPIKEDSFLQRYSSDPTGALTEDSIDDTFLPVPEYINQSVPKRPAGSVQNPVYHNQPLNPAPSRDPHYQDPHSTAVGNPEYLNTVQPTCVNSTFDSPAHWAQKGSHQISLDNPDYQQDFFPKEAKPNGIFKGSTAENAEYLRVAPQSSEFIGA

Row | SMILES | IC50 [1, 6] [nM] | IC50 [2, 7] [nM] | IC50 ([3]; IC50 WT (nM), 100 μM ATP) [nM] | IC50 [4, 8] [nM] | IC50 [5, 9] [nM] | IC50 [1, 10] [nM] | IC50 [2, 11] [nM] | IC50 [3, 12] [nM] | IC50 [4, 13] [nM] | IC50 [5, 14] [nM] | IC50 ([1]; read-out: IC50 L858R/C797S (nM), 100 μM ATP) [nM] | IC50 ([2]; read-out: IC50 Del19/C797S (nM), 100 μM ATP) [nM] | IC50 ([3]; read-out: IC50 WT (nM), 100 μM ATP) [nM] | IC50 ([4]; read-out: IC50 Del19/T790M/C797S (nM), 100 μM ATP) [nM] | IC50 ([5]; read-out: IC50 L858R/T790M/C797S (nM), 100 μM ATP) [nM] | IC50 ([1]; Km ATP, read-out: IC50 L858R/C797S (nM) Km ATP) [nM] | IC50 ([2]; Km ATP, read-out: IC50 Del19/C797S (nM) Km ATP) [nM] | IC50 ([3]; Km ATP, read-out: IC50 WT (nM) Km ATP) [nM] | IC50 ([4]; Km ATP, read-out: IC50 Del19/T790M/C797S (nM) Km ATP) [nM] | IC50 ([5]; Km ATP, read-out: IC50 L858R/T790M/C797S (nM) Km ATP) [nM]
1 | Cn1cnc(C#Cc2cnc(Nc3ccnc(-c4cnn(S(=O)(=O)C5CC5)c4)n3)cc2N2CCC(O)CC2)n1 [Example 214, 1-(2-((2-(1-(Cyclopropylsulfonyl)-1H-pyrazol-4-yl)pyrimidin-4-yl)amino)-5-((1-methyl-1H-1,2,4-triazol-3-yl)ethynyl)pyridin-4-yl)piperidin-4-ol] | 274 | 109 | > 10000 | 1.4 | 4 | – | – | – | – | – | – | – | – | – | – | – | – | – | – | –
2 | CN(C)CCC1CCN(c2cc(Nc3ccnc(-c4cnn(S(=O)(=O)C5CC5)c4)n3)ncc2C#Cc2cnn(CC(F)(F)F)c2)CC1 [Example 349, 2-(1-(Cyclopropylsulfonyl)-1H-pyrazol-4-yl)-N-(4-(4-(2-(dimethylamino)ethyl)piperidin-1-yl)-5-((1-(2,2,2-trifluoroethyl)-1H-pyrazol-4-yl)ethynyl)pyridin-2-yl)pyrimidin-4-amine] | 9.4 | 4.8 | 844 | 1.5 | 1 | 1.4 | 2.6 | 9.1 | 1.5 | 0.5 | – | – | – | – | – | – | – | – | – | –
3 | O=S(=O)(C1CC1)n1cc(-c2nccc(Nc3cc(NC4CCC(CO)CC4)c(C#CC4(F)CCOC4)cn3)n2)cn1 (centres unmarked) [Example 434, ((1s,4s)-4-((2-((2-(1-(Cyclopropylsulfonyl)-1H-pyrazol-4-yl)pyrimidin-4-yl)amino)-5-((3-fluorotetrahydrofuran-3-yl)ethynyl)pyridin-4-yl)amino)cyclohexyl)methanol] | 125 | 5.2 | 8890 | 0.3 | 0.5 | 2.4 | 2.3 | 21.2 | 0.4 | 0.2 | – | – | – | – | – | – | – | – | – | –
4 | Cn1cnc(C#Cc2cnc(Nc3ccnc(-c4cnn(S(=O)(=O)C5CC5)c4)n3)cc2N[C@H]2CC[C@@H](O)CC2)c1 [Example 216, (1s,4s)-4-((2-((2-(1-(Cyclopropylsulfonyl)-1H-pyrazol-4-yl)pyrimidin-4-yl)amino)-5-((1-methyl-1H-imidazol-4-yl)ethynyl)pyridin-4-yl)amino)cyclohexan-1-ol] | – | – | – | – | – | – | – | – | – | – | 28 | 4.9 | > 10000 | 0.7 | 0.8 | – | – | – | – | –
5 | CC(C)CCNC1CCN(c2cc(Nc3ccnc(-c4cnn(S(=O)(=O)C5CC5)c4)n3)ncc2C#Cc2cnn(C)c2)CC1 [Example 125, 2-(1-(Cyclopropylsulfonyl)-1H-pyrazol-4-yl)-N-(4-(4-(isopentylamino)piperidin-1-yl)-5-((1-methyl-1H-pyrazol-4-yl)ethynyl)pyridin-2-yl)pyrimidin-4-amine] | 330 | 34.2 | > 10000 | 5.6 | 5.6 | – | – | – | – | – | – | – | – | – | – | – | – | – | – | –

Second part, the compound after the results:

Row | IC50 [1, 6] [nM] | IC50 [2, 7] [nM] | IC50 ([3]; IC50 WT (nM), 100 μM ATP) [nM] | IC50 [4, 8] [nM] | IC50 [5, 9] [nM] | IC50 [1, 10] [nM] | IC50 [2, 11] [nM] | IC50 [3, 12] [nM] | IC50 [4, 13] [nM] | IC50 [5, 14] [nM] | IC50 ([1]; read-out: IC50 L858R/C797S (nM), 100 μM ATP) [nM] | IC50 ([2]; read-out: IC50 Del19/C797S (nM), 100 μM ATP) [nM] | IC50 ([3]; read-out: IC50 WT (nM), 100 μM ATP) [nM] | IC50 ([4]; read-out: IC50 Del19/T790M/C797S (nM), 100 μM ATP) [nM] | IC50 ([5]; read-out: IC50 L858R/T790M/C797S (nM), 100 μM ATP) [nM] | IC50 ([1]; Km ATP, read-out: IC50 L858R/C797S (nM) Km ATP) [nM] | IC50 ([2]; Km ATP, read-out: IC50 Del19/C797S (nM) Km ATP) [nM] | IC50 ([3]; Km ATP, read-out: IC50 WT (nM) Km ATP) [nM] | IC50 ([4]; Km ATP, read-out: IC50 Del19/T790M/C797S (nM) Km ATP) [nM] | IC50 ([5]; Km ATP, read-out: IC50 L858R/T790M/C797S (nM) Km ATP) [nM] | SMILES
6 | 45.2 | 8 | 5850 | 0.7 | 1.2 | – | – | – | – | – | – | – | – | – | – | – | – | – | – | – | CN1CCC2(CC1)CCN(c1cc(Nc3ccnc(-c4cnn(S(=O)(=O)C5CC5)c4)n3)ncc1C#Cc1cnn(C(F)F)c1)CC2 [Example 321, 2-(1-(Cyclopropylsulfonyl)-1H-pyrazol-4-yl)-N-(5-((1-(difluoromethyl)-1H-pyrazol-4-yl)ethynyl)-4-(9-methyl-3,9-diazaspiro[5.5]undecan-3-yl)pyridin-2-yl)pyrimidin-4-amine]
7 | 104 | 7.9 | > 10000 | 3.2 | 4.8 | – | – | – | – | – | – | – | – | – | – | 3 | 4.3 | 32 | 3.5 | 2.4 | CC1(CO)CCN(c2cc(Nc3ccnc(-c4cnn(S(=O)(=O)C5CC5)c4)n3)ncc2C#Cc2cnn(C(F)(F)F)c2)CC1 [Example 101, (1-(2-((2-(1-(Cyclopropylsulfonyl)-1H-pyrazol-4-yl)pyrimidin-4-yl)amino)-5-((1-(trifluoromethyl)-1H-pyrazol-4-yl)ethynyl)pyridin-4-yl)-4-methylpiperidin-4-yl)methanol]
